The record followed here is ChEMBL document CHEMBL1144396 (J Med Chem, 2005).

The assay deals with T1, Equilibrative nucleoside transporter 1 (Homo sapiens, UniProt Q99808).
T1 sequence (Q99808 whole entry): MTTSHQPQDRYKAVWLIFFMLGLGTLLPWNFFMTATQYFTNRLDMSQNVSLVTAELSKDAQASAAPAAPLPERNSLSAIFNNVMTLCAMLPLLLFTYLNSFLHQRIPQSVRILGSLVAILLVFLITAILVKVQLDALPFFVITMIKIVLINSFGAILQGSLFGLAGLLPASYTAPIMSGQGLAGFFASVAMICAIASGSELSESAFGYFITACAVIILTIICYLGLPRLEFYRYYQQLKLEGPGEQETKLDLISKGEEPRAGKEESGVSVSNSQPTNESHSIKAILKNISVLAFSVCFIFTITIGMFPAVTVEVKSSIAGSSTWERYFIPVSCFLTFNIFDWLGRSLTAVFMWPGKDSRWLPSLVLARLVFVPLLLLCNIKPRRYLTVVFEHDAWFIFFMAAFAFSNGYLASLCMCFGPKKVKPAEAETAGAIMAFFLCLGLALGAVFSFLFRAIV
Nature of the assay: Inhibition of [3H]NBTI binding to equilibrative nucleoside transport protein 1 (ENT1) in human erythrocyte membranes. Format: cell membranes.

The compound `CCCNc1nc2c(NC3CCCC3)ncnc2n1[C@@H]1O[C@H](CO)[C@@H](O)[C@H]1O` gave a Ki of 97 nM.
Turning to `O=[N+]([O-])c1ccc(CSc2ncnc3c2nc(N2CCCC2)n3Cc2ccccc2)cc1`, the inhibitory constant (Ki) came out at 1520 nM.
The same measure, in the same setting: under `O=[N+]([O-])c1ccc(CSc2ncnc3c2nc(N2CCOCC2)n3Cc2ccccc2)cc1` stands 51 nM; under `OC[C@H]1OC(n2c(NC3CC3)nc3c(SCc4ccccc4)ncnc32)[C@H](O)[C@@H]1O` (stereo partly drawn), 3 nM.
Still for that read-out and setting: next, `CCCCNc1nc2c(SCc3ccccc3)ncnc2n1C1O[C@H](CO)[C@@H](O)[C@H]1O` (stereo partly drawn): 5.4 nM; `OC[C@H]1OC(n2c(NC3CCCCC3)nc3c(SCc4ccccc4)ncnc32)[C@H](O)[C@@H]1O` (stereo partly drawn): 0.94 nM; `OC[C@H]1OC(n2c(N3CCCCC3)nc3c(SCc4ccccc4)ncnc32)[C@H](O)[C@@H]1O` (stereo partly drawn): 744 nM.
The same measure, in the same setting: under `OC[C@H]1OC(n2c(N3CCCC3)nc3c(SCc4ccccc4)ncnc32)[C@H](O)[C@@H]1O` (stereo partly drawn) stands 410 nM; under `CCNc1nc2c(SCc3ccccc3)ncnc2n1C1O[C@H](CO)[C@@H](O)[C@H]1O` (stereo partly drawn), 9.5 nM.
In turn, `CCCNc1nc2c(SCc3ccccc3)ncnc2n1C1O[C@H](CO)[C@@H](O)[C@H]1O` (stereo partly drawn) registered a Ki of 5.3 nM.
Same read-out and setting: under `CNc1nc2c(SCc3ccccc3)ncnc2n1C1O[C@H](CO)[C@@H](O)[C@H]1O` (stereo partly drawn) stands 28 nM; under `CCCCCNc1nc2c(SCc3ccccc3)ncnc2n1C1O[C@H](CO)[C@@H](O)[C@H]1O` (stereo partly drawn), 2.3 nM.
Compound `OC[C@H]1OC(n2c(NC3CCCC3)nc3c(SCc4ccccc4)ncnc32)[C@H](O)[C@@H]1O` (stereo partly drawn) came in with an inhibition constant (Ki) of 0.64 nM.
The same measure, in the same setting: next, `CCCCCCNc1nc2c(SCc3ccccc3)ncnc2n1C1O[C@H](CO)[C@@H](O)[C@H]1O` (stereo partly drawn): 3.7 nM; `CCC(C)CNc1nc2c(SCc3ccccc3)ncnc2n1C1O[C@H](CO)[C@@H](O)[C@H]1O` (stereo partly drawn): 3.6 nM.
Consider `OC[C@H]1OC(n2c(N3CCOCC3)nc3c(SCc4ccccc4)ncnc32)[C@H](O)[C@@H]1O` (stereo partly drawn), for which the Inhibition was 33%.
In turn, `OC[C@H]1O[C@@H](n2cnc3c(SCc4ccccc4)ncnc32)[C@H](O)[C@@H]1O` [6-BENZYLTHIOINOSINE] gave an inhibitory constant (Ki) of 53 nM.
Same read-out and setting: under `OC[C@H]1O[C@@H](n2cnc3c(NC4CCCC4)ncnc32)[C@H](O)[C@@H]1O` [N6-CYCLOPENTYLADENOSINE] stands 1100 nM.

One may read the Ki as a measure of affinity in units of concentration, obtained from inhibition or displacement. One may read the Inhibition as the drop in the measured response relative to a control, in per cent. Low values mean little suppression, high ones strong suppression.
